What was measured:
[1] = tested on: E. coli IH3080; assay: E-test MIC with or without NAB7061 (4 μg/ml), Mueller-Hinton agar; format: cell-based, Escherichia coli
Procedure: (§1) MICs were determined by using E-strips (Biodisk Ltd., Solna, Sweden) according to the manufacturer's instructions.
(§2) The strains originated from ATCC (11 strains), CCUG (11 strains), and NCTC (The National Collection of Type Cultures, Colindale, U.K.; 2 strains). Eight strains (the F-strains) were purchased from Mobidiag Ltd., Helsinki, Finland.

[2] = tested on: E. cloacae ATCC23355; assay: as above; format: cell-based, Enterobacter cloacae
Procedure: as §1, §2

[3] = tested on: K. pneumoniae ATCC13883; conditions: K. pneumoniae ATCC13883
Procedure: as §1, §2

[4] = tested on: E. coli ATCC25922; conditions: E. coli ATCC25922
Procedure: as §1, §2

[5] = tested on: Ac. baumannii F264; assay: E-test MIC with or without NAB7061 (4 μg/ml), Mueller-Hinton agar; format: cell-based, Acinetobacter baumannii; conditions: for MIC of carbapenem at NAB 7061 concn 0 μg/ml: A. baumannii F264, absence of NAB 7061; for MIC of antibiotic in the presence of 4 μg/ml of NAB 7061: Ac. baumannii F264
Procedure: as §1, §2

[6] = tested on: Ac. baumannii F263; assay: as above; format: cell-based, Acinetobacter baumannii; conditions: for MIC of carbapenem at NAB 7061 concn 0 μg/ml: A. baumannii F263, absence of NAB 7061; for MIC of antibiotic in the presence of 4 μg/ml of NAB 7061: Ac. baumannii F263
Procedure: as §1, §2

[7] = tested on: Ac. baumannii ATCC19606; assay: as above; format: cell-based, Acinetobacter baumannii; conditions: for MIC of carbapenem at NAB 7061 concn 0 μg/ml: A. baumannii ATCC19606, absence of NAB 7061; for MIC of antibiotic in the presence of 4 μg/ml of NAB 7061: Ac. baumannii ATCC19606
Procedure: as §1, §2

[8] = tested on: A. baumannii F264; assay: E-test MIC of antibiotics on Mueller Hinton agar containing increasing concentrations of NAB739; format: cell-based, Acinetobacter baumannii
[9] = tested on: P. aeruginosa ATCC 27853; assay: as above; format: cell-based, Pseudomonas aeruginosa
[10] = tested on: A. baumannii ATCC19606; assay: as above; format: cell-based, Acinetobacter baumannii
[11] = biological target: brush-border membrane (BBM) from the renal cortex; assay: Inhibition of binding of radiolabelled gentamycin to brush-border membrane vesicles; conditions: rat renal cortex BBM vesicles; 20 μM [3H] gentamycin; 60 min at 4° C.
Excerpt: The binding of the compounds according to this invention to isolated brush-border membrane (BBM) from the renal cortex can be measured indirectly by measuring their ability to inhibit the binding of radiolabelled gentamycin to BBM. Accordingly, the compounds according to this invention that have less affinity to BBM than for example polymyxin B inhibit the binding of radiolabelled gentamycin to a lesser degree than does polymyxin B.
BBM was isolated from the renal cortex of male albino rats by using the Mg^2+/EGTA precipitation technique as described by Nagai et al. (2006). The binding of gentamycin was measured, according to the method described by Nagai et al. (2006) by incubating BBM vesicles (20 μl) in 10 mM HEPES (pH 7.5) with 300 mM mannitol in the presence of 20 μM [^3H] gentamycin (American Radiolabeled Chemicals, Inc. (St. Louis, Mo., U.S.A.) with or without the compound to be tested or a positive control. After an incubation of 60 min at 4° C., 1 ml of ice-cold buffer described above was added, and the mixture was filtered through a Millipore filter (0.45 μm; HAWP). The filter was washed with the buffer and the radioactivity remaining in the filter was measured by using a liquid scintillation counter. The IC50 values were determined as in Nagai et al. (2006) using the Hill equation.

Compound | Sensitization factor to antibiotic (MIC without / with 4 μg/ml of NAB 7061) [1] | Sensitization factor to antibiotic (MIC without / with 4 μg/ml of NAB 7061) [2] | Sensitization factor to antibiotic (MIC without / with 4 μg/ml of NAB 7061) [3] | Sensitization factor to antibiotic (MIC without / with 4 μg/ml of NAB 7061) [4] | MIC of carbapenem at NAB 7061 concn 0 μg/ml [5] [µg/mL] | MIC of antibiotic in the presence of 4 μg/ml of NAB 7061 [5] [µg/mL] | MIC of carbapenem at NAB 7061 concn 0 μg/ml [6] [µg/mL] | MIC of antibiotic in the presence of 4 μg/ml of NAB 7061 [6] [µg/mL] | MIC of carbapenem at NAB 7061 concn 0 μg/ml [7] [µg/mL] | MIC of antibiotic in the presence of 4 μg/ml of NAB 7061 [7] [µg/mL] | other results
quinupristin-dalfopristin [Quinupristin-dalfopr.] | >21 | >5 | 1 | >21 |  |  |  |  |  |  | 
C[C@@H](O)[C@H]1C(=O)N2C(C(=O)O)=C(S[C@@H]3CN[C@H](C(=O)N(C)C)C3)[C@H](C)[C@H]12 [meropenem] |  |  |  |  | 32 | 4 | >32 | 6 | 1.5 | 0.75 | MIC of antibiotic in the presence of NAB739 ([8]; NAB 739 0 μg/ml): >32 µg/mL; MIC of antibiotic in the presence of NAB739 ([8]; NAB 739 0.5 μg/ml): 1 µg/mL; MIC of antibiotic in the presence of NAB739 ([8]; NAB 739 1 μg/ml): 0.38 µg/mL; MIC of antibiotic in the presence of NAB739 ([9]; NAB 739 0 μg/ml): 0.25 µg/mL; MIC of antibiotic in the presence of NAB739 ([9]; NAB 739 0.5 μg/ml): 0.25 µg/mL; MIC of antibiotic in the presence of NAB739 ([9]; NAB 739 1 μg/ml): 0.25 µg/mL; MIC of antibiotic in the presence of NAB739 ([9]; NAB 739 2 μg/ml): 0.25 µg/mL; MIC of antibiotic in the presence of NAB739 ([9]; NAB 739 […]): 0.25 µg/mL; MIC of antibiotic in the presence of NAB739 ([10]; NAB 739 0 μg/ml): 1 µg/mL; MIC of antibiotic in the presence of NAB739 ([10]; NAB 739 0.5 μg/ml): 0.25 µg/mL; MIC of antibiotic in the presence of NAB739 ([10]; NAB 739 1 μg/ml): 0.125 µg/mL
COc1cc(Cc2cnc(N)nc2N)cc(OC)c1OC [Trimetoprim] | 3 | 3 | 2 | 4 |  |  |  |  |  |  | 
C[C@@H](O)[C@H]1C(=O)N2C(C(=O)O)=C(SCCN=CN)C[C@H]12 [imipenem] |  |  |  |  | 24 | 6 | >32 | 8 | 0.38 | 0.38 | 
gentamycin [reference compound] |  |  |  |  |  |  |  |  |  |  | IC50 [11]: 90.2 ± 9.7 µM

Reference: US8329645B2, “Polymyxin derivatives and uses thereof” (priority 2008, dated 2012)
